Measured values reported in PMC3344887 (PLoS ONE, 2012).

Assays:
healthy subjects [1] = assay: Adjective Mood Rating Scale (AMRS), clinical study; type: in vivo, humans; conditions: peak change from baseline, mean±SEM, 16 subjects
Protocol: (§1) The washout periods between the sessions were at least 10 days long.
(§2) Identical placebo (lactose) capsules were prepared. […] Drugs were administered without food.
The psychometric measures included Visual Analog Scales (VAS), [10], the Adjective Mood Rating Scale (AMRS), and 5-Dimensions of Altered States of Consciousness (5D-ASC), [23]. […] The VASs were presented as 100 mm horizontal lines marked “not at all" on the left and “extremely" on the right. The VASs for “closeness to others," “open," and “talkative" were bidirectional (±50 mm). The VASs were administered 4 h before and 0, 0.33, 1, 1.5, 2, 2.5, 3, 3.5, 4, and 5 h after MDMA or placebo administration. […] The AMRS contains subscales for activity, extroversion and introversion, well-being, emotional excitation, anxiety-depression, and dreaminess. The 5D-ASC rating scale measures alterations in mood, perception, experience of self in relation to the environment, and thought disorder. The 5D-ASC rating scale comprises five subscales or dimensions and 11 lower-order scales. The 5D-ASC dimension “oceanic boundlessness" (OB, 27 items) measures derealization and depersonalization associated with positive emotional states, ranging from heightened mood to euphoric exaltation. […] The global ASC score was determined by adding the OB, AED, and VR scores. The 5D-ASC scale was administered 4 h after MDMA or placebo administration.
Clinical data values were transformed to differences from baseline. Peak effects (Emax) were determined for repeated measures. Emax values were compared using General Linear Models repeated-measures analysis of variance, with drug as within-subject factor, using Statistica 6.0 software (StatSoft, Tulsa, OK). Tukey post hoc comparisons were performed based on significant main effects of treatment. Additional analyses of variance were performed, with period as factor to exclude period effects. Correlation analyses were performed using Pearson’s correlations. The criterion for significance was p<0.05. Mean arterial pressure (MAP) was calculated from diastolic blood pressure and systolic blood pressure using the following formula: MAP = DBP+(SBP - DBP)/3.

healthy subjects [2] = assay: Circulating plasma catecholamines, clinical study; type: in vivo, humans; conditions: peak change from baseline, mean±SEM, 16 subjects
Protocol: as §1, §2
(§3) Plasma concentrations of copeptin were also determined in this study as reported elsewhere. […] No hydrolysis was performed. Thus, the values for HMMA represent the drug concentrations of the non-conjugated metabolite. All blood samples were collected on ice and centrifuged within 10 min at 4°C. The plasma was then stored at –20°C until the analysis.

healthy subjects [3] = assay: Adverse effects, List of Complaints, clinical study
Protocol: as §1, §2
Physiologic measures were assessed repeatedly 4, 3, 2, and 1 h before and 0, 0.33, 0.66, 1, 1.5, 2, 2.5, 3, 4, 5, and 6 h after MDMA or placebo administration. Heart rate, systolic blood pressure, and diastolic blood pressure were measured using an OMRON M7 blood pressure monitor (OMRON Healthcare Europe, Hoofddorp, The Netherlands). Measures were taken twice per time point with an interval of 1 min, and the average was used for the analysis. Core (tympanic) temperature was assessed using a GENIUS 2 ear thermometer (Tyco Healthcare Group, Watertown, NY). […] Adverse effects were assessed using the List of Complaints (LC), which consists of 66 items that yield a total adverse effects score and reliably measure physical and general discomfort.

clinical = conditions: human, in vivo
Protocol: as §2, §3
Cmax and tmax were obtained directly from the observed concentration-time curves. […] Terminal elimination half-life (t 1/2) was calculated using λz and the equation t1/2 = ln2/λz. The area under the plasma concentration-time curve up to 6 h (AUC0-6h) was calculated using the linear trapezoidal rule. The AUC0–∞ was determined by extrapolation of AUC0–6h using λz. The PK parameters were determined using the PK functions for Excel (Microsoft, Redmont, CA, USA). Plasma concentrations were only determined up to 6 h after MDMA administration because the aim of the study was to assess potential changes in MDMA plasma levels while relevant pharmacodynamic effects or MDMA were present.

[4] = set-up: method as in earlier work; conditions: cited from earlier work

With CNC(C)Cc1ccc2c(c1)OCO2 (stereo not shown) [MDMA, 3,4-methylenedioxymethamphetamine] the “AMRS Activity, Emin” value (healthy subjects [1]) was −4.69±1.04, the “AMRS Dreaminess, Emax” value (healthy subjects [1]) was 2.94±0.66 and the “AMRS Emotional excitation, Emax” value (healthy subjects [1]) was 4.94±0.97. The “AMRS Extroversion, Emax” value (healthy subjects [1]) was 3.50±0.61, the “AMRS Introversion, Emax” value (healthy subjects [1]) was 2.62±0.65 and the “AMRS Well-being, Emax” value (healthy subjects [1]) was 7.06±1.01. For the same compound, the “Circulating Epinephrine, Emax” value (healthy subjects [2]) was 0.50 ± 0.12 nM, the “Circulating Norepinephrine, Emax” value (healthy subjects [2]) was 0.44 ± 0.12 nM and the “List of Complaints (total score), Acute adverse effects” value (healthy subjects [3]; at 3 h, change from baseline, mean±SEM, 16 subjects) was 5.56±1.72. For the same compound, the “List of Complaints (total score), Sub-acute adverse effects” value (healthy subjects [3]; at 24 h, change from baseline, mean±SEM, 16 subjects) was 3.88±1.09, the Adverse effects produced (healthy subjects [3]; clinical study) was “sweating, difficulty concentrating, thirst, and lack of appetite” and the Cmax (clinical) was 254 ± 13.6 ng/mL. It also gave a Cmax (clinical; 125 mg) of 221 ± 11.6 ng/mL, an AUC(0-t) (clinical; AUC0-6) of 1110 ± 57.2 ng·h/mL and an AUC(0-t) (clinical; AUC0-6, Placebo-MDMA session, mean±SEM, n=16) of 953 ± 45.9 ng·h/mL. For the same compound, the AUC(0-inf) (clinical; AUC(0-∞)) was 2910 ± 276 ng·h/mL, the half-life (clinical; T1/2) was 7.14 ± 0.4 h and the half-life (clinical; T1/2, Placebo-MDMA session, mean±SEM, n=16) was 8.17 ± 0.74 h. For the same compound, the Tmax (clinical) was 2.66 ± 0.29 h, the Tmax (clinical; Placebo-MDMA session, mean±SEM, n=16) was 2.34 ± 0.19 h and the “Mean duration of subjective and cardiovascular effects” value [4] was 3.5 h. For the same compound, the “Time within which effects completely subside” value [4] was 5 to 6 h.
